One may read the Kd as the concentration at which binding is half-saturated.

In assay [1] the target is human RIPK1 (Homo sapiens (Human), UniProt Q13546). In words: KINOMEscan binding assay, human RIPK1. The note with it: Table 21. Put shortly:
(§1)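 Assay principle: test compound competes with immobilized bead ligand for kinase; kinase retained, then eluted, is counted by qPCR. Conditions were 1% DMSO final with 11 compound concentrations in 3-fold steps, 30,000 nM top for most. The Hill equation with slope −1 gave Kd.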

Assay [2] deals with human MLKL (full length) (Homo sapiens (Human), UniProt Q8NB16). In words: KINOMEscan binding assay, human MLKL (full length). The note with it: KINOMEscan, Table 21; read-out: Human MLKL (full-length) (KD). In a few lines:
as §1

Assay [3] concerns the target human RIPK3 (Homo sapiens (Human), UniProt Q9Y572). In words: KINOMEscan binding assay, human RIPK3. To be noted: Table 21. Put shortly:
as §1

Chain of human RIPK3 (Q9Y572 whole entry): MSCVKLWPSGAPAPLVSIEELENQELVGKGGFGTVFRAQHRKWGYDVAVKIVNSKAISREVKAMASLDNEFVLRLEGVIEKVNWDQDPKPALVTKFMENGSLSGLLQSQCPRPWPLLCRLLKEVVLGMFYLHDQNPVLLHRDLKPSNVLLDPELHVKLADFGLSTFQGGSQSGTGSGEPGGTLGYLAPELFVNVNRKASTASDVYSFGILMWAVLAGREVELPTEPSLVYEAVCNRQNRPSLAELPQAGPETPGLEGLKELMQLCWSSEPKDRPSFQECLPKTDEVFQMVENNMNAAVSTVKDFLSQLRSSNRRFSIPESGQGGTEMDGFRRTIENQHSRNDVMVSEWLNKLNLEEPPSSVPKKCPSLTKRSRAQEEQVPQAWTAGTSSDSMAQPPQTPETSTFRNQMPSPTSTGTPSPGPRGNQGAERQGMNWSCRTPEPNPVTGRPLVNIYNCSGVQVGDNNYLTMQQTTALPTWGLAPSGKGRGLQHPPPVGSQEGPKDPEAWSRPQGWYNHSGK
Chain of human RIPK1 (Q13546 whole entry): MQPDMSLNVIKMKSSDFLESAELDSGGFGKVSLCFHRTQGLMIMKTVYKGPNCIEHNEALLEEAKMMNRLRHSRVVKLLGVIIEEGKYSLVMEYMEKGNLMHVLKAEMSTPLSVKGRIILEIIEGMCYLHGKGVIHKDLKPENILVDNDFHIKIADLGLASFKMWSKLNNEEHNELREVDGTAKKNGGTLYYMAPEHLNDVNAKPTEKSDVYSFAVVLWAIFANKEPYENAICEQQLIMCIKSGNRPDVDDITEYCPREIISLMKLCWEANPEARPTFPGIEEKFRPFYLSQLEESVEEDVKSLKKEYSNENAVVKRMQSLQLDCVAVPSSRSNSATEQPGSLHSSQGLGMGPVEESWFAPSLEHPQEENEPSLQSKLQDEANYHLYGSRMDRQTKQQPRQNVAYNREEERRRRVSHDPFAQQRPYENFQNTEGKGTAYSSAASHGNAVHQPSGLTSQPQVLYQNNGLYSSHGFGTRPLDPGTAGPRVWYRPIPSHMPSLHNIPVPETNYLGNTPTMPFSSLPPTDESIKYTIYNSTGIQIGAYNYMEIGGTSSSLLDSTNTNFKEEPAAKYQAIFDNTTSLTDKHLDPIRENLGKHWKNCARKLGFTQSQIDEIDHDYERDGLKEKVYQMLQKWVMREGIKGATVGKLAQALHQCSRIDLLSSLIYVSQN
Chain of human MLKL (full length) (Q8NB16 whole entry): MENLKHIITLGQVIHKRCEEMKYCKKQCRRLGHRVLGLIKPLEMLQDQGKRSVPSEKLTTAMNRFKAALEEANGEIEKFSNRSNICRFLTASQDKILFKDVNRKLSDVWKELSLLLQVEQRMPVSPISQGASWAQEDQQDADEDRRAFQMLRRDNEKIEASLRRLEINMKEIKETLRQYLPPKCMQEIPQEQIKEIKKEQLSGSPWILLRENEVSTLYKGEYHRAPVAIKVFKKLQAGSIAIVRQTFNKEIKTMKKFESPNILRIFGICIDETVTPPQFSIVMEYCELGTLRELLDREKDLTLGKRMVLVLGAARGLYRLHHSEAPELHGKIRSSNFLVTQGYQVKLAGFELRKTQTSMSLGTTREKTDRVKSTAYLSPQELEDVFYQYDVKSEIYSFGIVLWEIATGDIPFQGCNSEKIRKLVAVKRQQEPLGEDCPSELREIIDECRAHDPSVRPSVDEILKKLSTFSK

As to `C[C@H](Oc1cc(-c2nn(C)c3c(-c4cnn(CCN(C)C)c4)cnc(N)c23)ccc1NS(=O)(=O)C(F)F)c1ccc(F)cc1` [Compound 100, (S)-N-(4-(4-amino-7-(1-(2-(dimethylamino)ethyl)-1H-pyrazol-4-yl)-1-methyl-1H-pyrazolo[4,3-c]pyridin-3-yl)-2-(1-(4-fluorophenyl)ethoxy)phenyl)-1,1-difluoromethanesulfonamide], the Kd in assay [1] is over 10 µM; in assay [2] it was under 0.001 µM; in assay [3] it was over 10 µM.
For the compound `CC(C)N(C)CC(C)n1cc(-c2cnc(N)c3c(-c4ccc(NS(=O)(=O)C(F)F)c(O[C@@H](C)c5ccc(F)cc5)c4)nn(C)c23)cn1` (stereo partly drawn) [Compound 101, N-(4-(4-amino-7-(1-(1-(isopropyl(methyl)amino)propan-2-yl)-1H-pyrazol-4-yl)-1-methyl-1H-pyrazolo[4,3-c]pyridin-3-yl)-2-((S)-1-(4-fluorophenyl)ethoxy)phenyl)-1,1-difluoromethanesulfonamide], the Kd in assay [1] was over 10 µM; in assay [2], under 0.001 µM; in assay [3], over 10 µM.
With `[2H]C([2H])([2H])N1CCC(n2cc(-c3cnc(N)c4c(-c5ccc(NS(=O)(=O)C(F)F)c(O[C@@H](C)c6ccc(F)cc6)c5)nn(C)c34)cn2)CC1` [Compound 103, (S)-N-(4-(4-amino-1-methyl-7-(1-(1-(methyl-d3)piperidin-4-yl)-1H-pyrazol-4-yl)-1H-pyrazolo[4,3-c]pyridin-3-yl)-2-(1-(4-fluorophenyl)ethoxy)phenyl)-1,1-difluoromethanesulfonamide], the Kd in assay [1] was over 10 µM; in assay [2], under 0.001 µM; in assay [3], over 10 µM.
Regarding `C[C@H](Oc1cc(-c2nn(C)c3c(-c4cnc(N5CCN(C)CC5)nc4)cnc(N)c23)ccc1NS(=O)(=O)C(F)F)c1ccc(F)cc1` [Compound 105, (S)-N-(4-(4-amino-1-methyl-7-(2-(4-methylpiperazin-1-yl)pyrimidin-5-yl)-1H-pyrazolo[4,3-c]pyridin-3-yl)-2-(1-(4-fluorophenyl)ethoxy)phenyl)-1,1-difluoromethanesulfonamide], the Kd in assay [1] is over 10 µM; in assay [2] it was under 0.001 µM; in assay [3] it was over 10 µM.
Take `C[C@H](Oc1cc(-c2nn(C)c3c(-c4cnc(N5CCOCC5)nc4)cnc(N)c23)ccc1NS(=O)(=O)C(F)F)c1ccc(F)cc1` [Compound 110, (S)-N-(4-(4-amino-1-methyl-7-(2-morpholinopyrimidin-5-yl)-1H-pyrazolo[4,3-c]pyridin-3-yl)-2-(1-(4-fluorophenyl)ethoxy)phenyl)-1,1-difluoromethanesulfonamide]: the Kd is over 10 µM in assay [1], under 0.001 µM in assay [2] and over 10 µM in assay [3].
Consider `C[C@@H](Oc1cc(-c2nn(C)c3c(-c4cnn(C5CCOCC5)c4)cnc(N)c23)ccc1NS(=O)(=O)C(F)F)c1ccc(F)cc1` [Compound 121, (R)-N-(4-(4-amino-1-methyl-7-(1-(tetrahydro-2H-pyran-4-yl)-1H-pyrazol-4-yl)-1H-pyrazolo[4,3-c]pyridin-3-yl)-2-(1-(4-fluorophenyl)ethoxy)phenyl)-1,1-difluoromethane-sulfonamide], for which the Kd is over 10 µM in assay [1], under 0.001 µM in assay [2] and over 10 µM in assay [3].
On to `C[C@H](Oc1cc(-c2nn(C)c3c(-c4cnn(C5CCOCC5)c4)cnc(N)c23)ccc1NS(=O)(=O)C(F)F)c1cccc(Cl)c1` [Compound 122], for which the Kd is over 10 µM in assay [1], under 0.001 µM in assay [2] and over 10 µM in assay [3].
For `C[C@H](Oc1cc(-c2nn(C)c3c(-c4cnn(C(F)F)c4)cnc(N)c23)ccc1NS(=O)(=O)C(F)F)c1ccc(F)cc1` [Compound 123, (S)-N-(4-(4-amino-7-(1-(difluoromethyl)-1H-pyrazol-4-yl)-1-methyl-1H-pyrazolo[4,3-c]pyridin-3-yl)-2-(1-(4-fluorophenyl)ethoxy)phenyl)-1,1-difluoromethanesulfonamide], the dissociation constant Kd in assay [1] was over 10 µM; in assay [2], under 0.001 µM; in assay [3], over 10 µM.
In the case of `Cn1nc(-c2ccc(NS(=O)(=O)C(F)F)c(OCc3cccc(Cl)c3)c2)c2c(N)ncc(-c3cnn(C4CCOCC4)c3)c21` [Compound 130, N-(4-(4-amino-1-methyl-7-(1-(tetrahydro-2H-pyran-4-yl)-1H-pyrazol-4-yl)-1H-pyrazolo[4,3-c]pyridin-3-yl)-2-((3-chlorobenzyl)oxy)phenyl)-1,1-difluoromethane-sulfonamide], the figures for the Kd in assay [1], in assay [2] and in assay [3] were over 10 µM, under 0.001 µM and over 10 µM, respectively.
With `Cn1nc(-c2ccc(NS(=O)(=O)C(F)F)c(OCc3ccc(Cl)c(F)c3)c2)c2c(N)ncc(-c3cnn(C4CCOCC4)c3)c21` [Compound 132, N-(4-(4-amino-1-methyl-7-(1-(tetrahydro-2H-pyran-4-yl)-1H-pyrazol-4-yl)-1H-pyrazolo[4,3-c]pyridin-3-yl)-2-((4-chloro-3-fluoro-benzyl)oxy)phenyl)-1,1-difluoromethane-sulfonamide], the equilibrium dissociation constant (Kd) in assay [1] was over 10 µM; in assay [2], under 0.001 µM; in assay [3], over 10 µM.
Turning to `Cn1nc(-c2ccc(NS(=O)(=O)C(F)F)cc2OCc2cccc(F)c2)c2c(N)ncc(-c3cnn(C4CCOCC4)c3)c21` [Compound 135, N-(4-(4-amino-1-methyl-7-(1-(tetrahydro-2H-pyran-4-yl)-1H-pyrazol-4-yl)-1H-pyrazolo[4,3-c]pyridin-3-yl)-3-((3-fluorobenzyl)oxy)phenyl)-1,1-difluoro-methanesulfonamide], the values for the Kd in assay [1], in assay [2] and in assay [3] were over 10 µM, under 0.001 µM and over 10 µM, respectively.
For `CC(n1cc(-c2cnc(N)c3c(-c4ccc(NS(=O)(=O)C(F)F)c(O[C@@H](C)c5ccc(F)cc5)c4)nn(C)c23)cn1)C(F)(F)F` (stereo partly drawn) [Compound 142, N-(4-(4-amino-1-methyl-7-(1-(1,1,1-trifluoropropan-2-yl)-1H-pyrazol-4-yl)-1H-pyrazolo[4,3-c]pyridin-3-yl)-2-((S)-1-(4-fluorophenyl)ethoxy)phenyl)-1,1-difluoromethanesulfonamide], the Kd was over 10 µM in assay [1], under 0.001 µM in assay [2] and over 10 µM in assay [3].
For the compound `Cn1nc(-c2ccc(NS(=O)(=O)C(F)F)c(OCc3nccs3)c2)c2c(N)ncc(-c3cnn(C4CCOCC4)c3)c21` [Compound 143, N-(4-(4-amino-1-methyl-7-(1-(tetrahydro-2H-pyran-4-yl)-1H-pyrazol-4-yl)-1H-pyrazolo[4,3-c]pyridin-3-yl)-2-(thiazol-2-yl-methoxy)phenyl)-1,1-difluoromethane-sulfonamide], the values for the Kd in assay [1], in assay [2] and in assay [3] were over 10 µM, under 0.001 µM and over 10 µM, respectively.
For the compound `CC(C)Oc1cc(-c2nn(C)c3c(-c4cnn(C5CCOCC5)c4)cnc(N)c23)ccc1NS(=O)(=O)C(F)F` [Compound 144, N-(4-(4-amino-1-methyl-7-(1-(tetrahydro-2H-pyran-4-yl)-1H-pyrazol-4-yl)-1H-pyrazolo[4,3-c]pyridin-3-yl)-2-isopropoxy-phenyl)-1,1-difluoromethane-sulfonamide], the Kd was over 10 µM in assay [1], under 0.001 µM in assay [2] and over 10 µM in assay [3].
Take `Cn1nc(-c2ccc(NS(=O)(=O)C(F)F)c(OCC3CCCCC3)c2)c2c(N)ncc(-c3cnn(C4CCOCC4)c3)c21` [Compound 150, N-(4-(4-amino-1-methyl-7-(1-(tetrahydro-2H-pyran-4-yl)-1H-pyrazol-4-yl)-1H-pyrazolo[4,3-c]pyridin-3-yl)-2-(cyclohexyl-methoxy)phenyl)-1,1-difluoromethane-sulfonamide]: the values for the Kd in assay [1], in assay [2] and in assay [3] were over 10 µM, under 0.001 µM and over 10 µM, respectively.
Take `Cn1nc(-c2ccc(NS(=O)(=O)C(F)F)c(OCc3ncco3)c2)c2c(N)ncc(-c3cnn(C4CCOCC4)c3)c21` [Compound 151, N-(4-(4-amino-1-methyl-7-(1-(tetrahydro-2H-pyran-4-yl)-1H-pyrazol-4-yl)-1H-pyrazolo[4,3-c]pyridin-3-yl)-2-(oxazol-2-yl-methoxy)phenyl)-1,1-difluoromethane-sulfonamide]: the results for the Kd in assay [1], in assay [2] and in assay [3] were over 10 µM, under 0.001 µM and over 10 µM, respectively.
As to `C[C@H](Oc1cc(-c2nn(C)c3c(-c4cnn(C5CCN(C)C(C)(C)C5)c4)cnc(N)c23)ccc1NS(=O)(=O)C(F)F)c1ccc(Cl)cc1` (stereo partly drawn) [Compound 159, N-(4-(4-amino-1-methyl-7-(1-(1,2,2-trimethylpiperidin-4-yl)-1H-pyrazol-4-yl)-1H-pyrazolo[4,3-c]pyridin-3-yl)-2-((S)-1-(4-chloro-phenyl)ethoxy)phenyl)-1,1-difluoro-methanesulfonamide], the figures for the Kd in assay [1], in assay [2] and in assay [3] were over 10 µM, under 0.001 µM and over 10 µM, respectively.
Consider `C[C@H](Oc1cc(-c2nn(C)c3c(-c4ccc5[nH]c(=O)n(C)c5c4)cnc(N)c23)ccc1NS(=O)(=O)C(F)F)c1ccc(F)cc1` [Compound 160, (S)-N-(4-(4-amino-1-methyl-7-(3-methyl-2-oxo-2,3-dihydro-1H-benzo[d]imidazol-5-yl)-1H-pyrazolo[4,3-c]pyridin-3-yl)-2-(1-(4-fluorophenyl)ethoxy)phenyl)-1,1-difluoromethanesulfonamide], for which the Kd in assay [1] was over 10 µM; in assay [2], under 0.001 µM; in assay [3], over 10 µM.
In the case of `C[C@H](Oc1cc(-c2nn(C)c3c(-c4ccc5c(c4)n(C)c(=O)n5C)cnc(N)c23)ccc1NS(=O)(=O)C(F)F)c1ccc(F)cc1` [Compound 161, (S)-N-(4-(4-amino-7-(1,3-dimethyl-2-oxo-2,3-dihydro-1H-benzo[d]imidazol-5-yl)-1-methyl-1H-pyrazolo[4,3-c]pyridin-3-yl)-2-(1-(4-fluorophenyl)ethoxy)phenyl)-1,1-difluoromethanesulfonamide], the Kd was over 10 µM in assay [1], under 0.001 µM in assay [2] and over 10 µM in assay [3].

The values are drawn from patent US20250115598A1 (Anaxis Pharma Pty Ltd, priority 2021, published 2025).
